Test results reported in publication PMC5663706, “Diversity oriented biosynthesis via accelerated evolution of modular gene clusters” (Nature Communications, 2017).

What was measured:
FKBP12 = FKBP12 (Homo sapiens, UniProt P62942); experiment: FKBP12 PPIase inhibition assay; assay type: biochemical; settings: 10 °C, pH 8.0, 6 nM FKBP12, 60 µM SUC-ALPF-pNA, read-out: FKBP12 K i
Saccharomyces cerevisiae = Saccharomyces cerevisiae MIC assay (microdilution); assay type: cell-based; settings: RPMI 1640 broth, 37 °C, 24 h, read-out: S. cerevisiae MIC
Procedure: We additionally assessed the rapalogs for antifungal activity using a standard Saccharomyces cerevisiae MIC assay. As expected, activity was similar to that observed for the mTORC1 pathway assay, likely through inhibition of TOR1 and TOR2.
Minimum Inhibitory Concentration (MIC) values for each compound were determined using the microdilution method. Briefly, stock solutions of the 6 test rapalogs (6.4 mg mL^−1 in methanol) were diluted 1:50 in RPMI 1640 broth (Sigma-Aldrich) to a working concentration of 128 µg ml^−1, and serially diluted in broth (1:2) in sterile, polypropylene 96-well plates, 100 µL per well. Saccharomyces cerevisiae was cultured in RPMI 1640 broth, 37 °C, 250 r.p.m., 18 h. […] A volume of 100 µL aliquots of this dilution were added to each well and mixed by gentle trituration. Plates were incubated at 37 °C for 24 h. The concentration of compound at which no visible growth was apparent was determined to be the MIC.

[1] = system: mTORC1 pathway (p-S6 formation)
[2] = system: human macrophages challenged with B. pseudomallei; assay type: cell-based

Sequence of FKBP12 (P62942 whole entry, species assumed): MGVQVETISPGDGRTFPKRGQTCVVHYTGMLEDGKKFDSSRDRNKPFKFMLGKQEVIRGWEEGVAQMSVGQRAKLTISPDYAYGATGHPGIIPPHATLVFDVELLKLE

## COC1CC2CCC(C)C(O)(O2)C(=O)C(=O)N2CCCCC2C(=O)OC(C(C)CC2CCC(O)CC2)CC(=O)C(C)C=C(C)C(O)C(OC)C(=O)C(C)CC(C)C=CC=CC=C1C (stereo not shown) [Compound 1, 39-desmethoxyrapamycin]
FKBP12
  Ki: 2.5 nM
Saccharomyces cerevisiae
  MIC: < 0.25 µg/mL

## COC(CC1CCC(C)C(O)(CC(=O)N2CCCCC2C(=O)O)O1)C(C)=CC=CC=CC(C)CC1CCC(O)CC1 (stereo not shown) [Compound 2]
FKBP12
  Ki: > 1000 nM
Saccharomyces cerevisiae
  MIC: > 64 µg/mL
[1]
  IC50: 1000 nM

## C\C1=C/C=C/C=C/[C@@H](C)C[C@@H](C)C(=O)[C@H]2CC[C@@H](CC2)OC(=O)[C@@H]2CCCCN2C(=O)C(=O)[C@]2(O)O[C@@H](CC[C@H]2C)C[C@@H]1O [Compound 3]
FKBP12
  Ki: 460 nM
Saccharomyces cerevisiae
  MIC: > 64 µg/mL
[1]
  IC50: > 1900 nM

## COC1CC2CCC(C)C(O)(CC(=O)N3CCCCC3C(=O)OC(C(C)CC3CCC(O)CC3)CC(=O)C(C)CC(C)C=CC=CC=C1C)O2 (stereo not shown) [Compound 5]
FKBP12
  Ki: 370 nM
Saccharomyces cerevisiae
  MIC: < 64 µg/mL
[1]
  IC50: 300 nM

## COC1CC2CCC(C)C(O)(O2)C(=O)C(=O)N2CCCCC2C(=O)OC(C(C)CC2CCC(O)CC2)CC=C(C)C(O)CC(=O)C(C)CC(C)C=CC=CC=C1C (stereo not shown) [Compound 7]
FKBP12
  Ki: 7.9 nM
Saccharomyces cerevisiae
  MIC: < 2 µg/mL
[1]
  IC50: 100 nM
[2]
  survival of human macrophages challenged with B. pseudomallei: increase the survival

## CO[C@H]1C[C@@H]2CC[C@@H](C)[C@@](O)(O2)C(=O)C(=O)N2CCCC[C@H]2C(=O)O[C@H]([C@H](C)C[C@H]2CC[C@H](O)CC2)CC(O)CC(=O)[C@H](C)/C=C(\C)[C@@H](O)CC(=O)[C@H](C)C[C@H](C)/C=C/C=C/C=C/1C (stereo partly shown) [Compound 8]
FKBP12
  Ki: 6.5 nM
Saccharomyces cerevisiae
  MIC: < 2 µg/mL

## CO[C@H]1C[C@@H]2CC[C@@H](C)[C@@](O)(O2)C(=O)C(=O)N2CCCC[C@H]2C(=O)O[C@H]([C@H](C)C[C@@H]2CC[C@@H](O)[C@H](OC)C2)CC(=O)[C@H](C)/C=C(\C)[C@@H](O)[C@@H](OC)C(=O)[C@H](C)C[C@H](C)/C=C/C=C/C=C/1C [Rapamycin, reference compound]
Saccharomyces cerevisiae
  MIC: < 0.25 µg/mL
[1]
  IC50: < 1 nM
